From patent US20160120848A1, “SPECIFIC CANCER TREATMENT REGIMES WITH GANETESPIB” (SYNTA PHARMACEUTICALS CORP., priority 2013, published 2016)

Assays:
[1] = system: triple-negative breast cancer; test: Phase 3 study of ganetespib in combination with docetaxel; format: in vivo, patients; conditions: ganetespib 150 mg/m^2 in combination with docetaxel 75 mg/m^2
Excerpt: This is an open-label, multicenter, randomized Phase 3 study of patients with triple-negative breast cancer (TNBC). Eligible patients are previously untreated for their advanced or metastatic disease and have measurable disease as defined by Response Evaluation Criteria in Solid Tumors (RECIST). Patients are randomized in a 1:1 ratio to receive either ganetespib in combination with docetaxel or docetaxel alone. The study compares the efficacy and tolerability of ganetespib in combination with docetaxel versus docetaxel alone.
The study enrolls approximately 300 patients over a planned 30-month period, and patients are randomized into one of two treatment arms:
Arm A (combination arm): Ganetespib 150 mg/m^2 in combination with docetaxel 75 mg/m^2. On Day 1 of each 3-week treatment cycle, ganetespib and docetaxel are administered as separate 1-hour intravenous infusions. Administration of ganetespib precedes the administration of docetaxel. There is a 1-hour “rest” period following the end of the ganetespib infusion prior to docetaxel infusion. Ganetespib 150 mg/m^2 is administered again on Day 15 of each cycle […]
Clinical and laboratory parameters are assessed to evaluate disease status and toxicity in all patients. […] The post-dose ECG is recorded within approximately 60 minutes after the end of the ganetespib infusion or as soon as feasible. […]

[2] = system: ovarian, fallopian tube or peritoneal cancer; test: Phase I/II study of ganetespib in combination with paclitaxel; format: in vivo; conditions: combination with weekly paclitaxel 80 mg/m^2
Procedure: A Phase I/II trial of weekly paclitaxel in combination with ganetespib in patients with recurrent, platinum-resistant ovarian, fallopian tube or primary peritoneal cancer is performed. A total of up to 74 patients (up to 18 Phase I patients and up to 56 Phase II patients) with recurrent, platinum-resistant epithelial ovarian, primary peritoneal and fallopian tube carcinoma is enrolled.
Phase I Treatment: Paclitaxel IV given over 1 hour at 80 mg/m^2 days 1, 8 and 15 of a 28-day cycle. Ganetespib IV at a starting dose of 100 mg/m^2 on days 1, 8 and 15 of a 28-day cycle. Ganetespib escalation will follow a modified 3+3 design and escalate from 100 mg/m^2 to 125 mg/m^2 to 150 mg/m^2.
Phase II treatment (after MTD): Phase II TPaclitaxel IV given over 1 hour at 80 mg/m^2 days 1, 8 and 15 of a 28-day cycle. PLUS ganetespib IV at MTD/MED from Phase I on days 1, 8 and 15 of a 28-day cycle.

[3] = system: complex between Hsp90 and mutant p53; test: Preclinical study of Hsp90 inhibition by ganetespib in mutant p53 cells; format: cell-based
[4] = system: cancers with genetic profiles driven by strong Hsp90 clients; test: Earlier clinical results for ganetespib, monotherapy and with taxanes; format: in vivo
Excerpt: The clinical study aims to achieve this goal by using ganetespib to target what may be a central driver of ovarian cancer aggressiveness and metastatic ability, namely mutant p53.

[5] = combination of ganetespib and taxanes

CC(C)c1cc(-c2n[nH]c(=O)n2-c2ccc3c(ccn3C)c2)c(O)cc1O [ganetespib]
efficacy [1]: efficacious | safety profile [1]: good safety profile | efficacy [2]: efficacious | safety profile [2]: good safety profile | anti-cancer activity [3]: potent anti-cancer activity | anti-cancer activity in cells with mutant p53 compared with other cells [3]: substantially stronger in cells with mutant p53 | effect on complex between Hsp90 and mutant p53 [3]: destroyed the complex between Hsp90 and mutant p53 | effect on mutant p53 protein [3]: inducing the degradation of mutant p53 | sensitization of mutant p53 cancer cells to treatment with chemotherapies ([3]; inhibition of Hsp90): strongly sensitize | activity [4, 5]: favorable | safety profile [4, 5]: favorable | tumor responses ([4]; ganetespib monotherapy, cancers with genetic profiles driven by strong Hsp90 clients): durable objective tumor responses
